Results on 30 molecules are retold here after patent US20060128724A1, “Pyrazole-substituted aminoheteroaryl compounds as protein kinase inhibitors” (AGOURON PHARMACEUTICALS, INC., priority 2004, published 2006).

The first assay deals with T1, c-MET (HGFR) (Homo sapiens, UniProt P08581).
T1 construct: purchased Upstate 14-526
T1 sequence (P08581 974-1390 limits assumed): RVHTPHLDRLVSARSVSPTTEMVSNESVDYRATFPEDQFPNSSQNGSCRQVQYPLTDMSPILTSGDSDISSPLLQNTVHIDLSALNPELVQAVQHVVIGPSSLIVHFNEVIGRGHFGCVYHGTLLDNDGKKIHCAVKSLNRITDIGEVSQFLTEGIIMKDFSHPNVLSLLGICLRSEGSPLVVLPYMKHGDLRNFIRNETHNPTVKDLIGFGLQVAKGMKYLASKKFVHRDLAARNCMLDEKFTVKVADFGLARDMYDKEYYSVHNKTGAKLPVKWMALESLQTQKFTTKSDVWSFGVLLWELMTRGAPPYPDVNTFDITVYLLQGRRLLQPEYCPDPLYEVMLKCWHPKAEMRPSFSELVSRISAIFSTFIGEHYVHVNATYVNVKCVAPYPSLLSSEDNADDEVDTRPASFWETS
The assay is described as follows: HGFR Continuous-Coupled Spectrophotometric Assay. In kind it is biochemical. As to conditions: Met-2 substrate peptide, 50 nM HGFR, 37° C.; read-out: Met Ki. The gist of the method: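 Tyrosine kinase activity of 50 nM HGFR on the activation-loop Met-2 peptide, followed as NADH consumption at 340 nm over 10 min at 37 °C in a pyruvate kinase/LDH coupled system, HEPES pH 7.5 buffer with MgCl2 and DTT.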
For orientation: Ki means the dissociation constant of the complex between target and ligand, obtained from inhibition or displacement. Turning to `CC(Oc1cc(-c2cnn(C3CCNCC3)c2)cnc1N)c1c(Cl)c(O)cc(F)c1Cl` (stereo not drawn) [Example 147, 3-{1-[2-Amino-5-(1-piperidin-4-yl-1H-pyrazol-4-yl)-pyridin-3-yloxy]ethyl}-2,4-dichloro-5-fluoro-phenol], the Ki worked out at 30 nM.

`CCN(CC)CC(=O)N1CCC(n2cc(-c3cnc(N)c(OC(C)c4c(Cl)ccc(F)c4Cl)c3)cn2)CC1` (stereo not drawn) [Example 126, 1-[4-(4-{6-Ainino-5-[1-(2,6-dichloro-3-fluoro-phenyl)-ethoxy]-pyridin-3-yl}-pyrazol-1-yl)-piperidin-1-yl]-2-diethylamino-ethanone]: the Ki worked out at 15 nM.

Take `CC(Oc1cc(-c2cnn(C)c2)cnc1N)c1c(Cl)c(F)cc(O[C@@H]2CCNC2)c1Cl` (stereo partly drawn) [Example 152, 3-{1-[2,6-Dichloro-3-fluoro-5-(pyrrolidin-3R-yloxy)-phenyl]-ethoxy}-5-(1-methyl-1H-pyrazol-4-yl)-pyridin-2-ylamine]: the Ki amounted to 32 nM. Same read-out and setting: for `CC(Oc1cc(-c2cnn(C)c2)cnc1N)c1c(Cl)c(F)cc(OC2CNC2)c1Cl` (stereo not drawn) [Example 155, 3-{1-[3-(Azetidin-3-yloxy)-2,6-dichloro-5-fluoro-phenyl]-ethoxy}-5-(1-methyl-1H-pyrazol-4-yl)-pyridin-2-ylamine] the value was 29 nM; for `CC(Oc1cc(-c2cnn(CCN3CCCC3=O)c2)cnc1N)c1c(Cl)ccc(F)c1Cl` (stereo not drawn) [Example 133, 1-[2-(4-{6-Amino-5-[1-(2,6-dichloro-3-fluoro-phenyl)-ethoxy]-pyridin-3-yl}pyrazol-1-yl)-ethyl]-pyrrolidin-2-one], 105 nM; for `CC(Oc1cccnc1N)c1cc(F)ccc1C#N` (stereo not drawn) [Example 129, 2-[1-(2-Amino-pyridin-3-yloxy)-ethyl]-4-fluoro-benzonitrile], 6460 nM. Consider `CC(Oc1cc(-c2cnn(C)c2)cnc1N)c1c(Cl)c(F)cc(OC2CCNCC2)c1Cl` (stereo not drawn) [Example 151, 3-{1-[2,6-Dichloro-3-fluoro-5-(piperidin-4-yloxy)-phenyl]-ethoxy]-5-(1-methyl-1H-pyrazol-4-yl)-pyridin-2-ylamine], for which the Ki stood at 25 nM.

Turning to `CC(Oc1cc(-c2cnn(CC(C)(C)O)c2)cnc1N)c1c(Cl)ccc(F)c1Cl` (stereo not drawn) [Example 130, 1-(4-{6-Amino-5-[1-(2,6-dichloro-3-fluoro-phenyl)-ethoxy]-pyridin-3-yl}-pyrazol-1-yl)-2-methyl-propan-2-ol], the Ki was found to be 45 nM.

In the case of `CC(Oc1cc(-c2cnn(C3CCNCC3)c2)cnc1N)c1cc(F)cc(F)c1Cl` (stereo not drawn) [Example 144, 3-[1-(2-Chloro-3,5-difluoro-phenyl)-ethoxy]-5-(1-piperidin-4-yl-1H-pyrazol-4-yl)-pyridin-2-ylamine], the Ki amounted to 587 nM.

Consider `CCS(=O)(=O)N1CCC(n2cc(-c3cnc(N)c(OC(C)c4c(Cl)ccc(F)c4Cl)c3)cn2)CC1` (stereo not drawn) [Example 121], for which the Ki was 16 nM.

Still in this assay, the particulars now being: Met-2 substrate peptide, 50 nM HGFR, 37° C.; read-out: c-Met Ki.
For the molecule `CC(Oc1cc(-c2cnn(CC3(O)CCNCC3)c2)cnc1N)c1c(Cl)ccc(F)c1Cl` (stereo not drawn) [Example 4, 4-[(4-{6-amino-5-[1-(2,6-dichloro-3-fluorophenyl)ethoxy]pyridin-3-yl}1H-pyrazol-1-yl)methyl]piperidin-4-ol], the Ki was 62 nM. Still for that read-out and setting: for `CC(Oc1cc(-c2cnn(C3CN(CC(N)=O)C3)c2)cnc1N)c1c(Cl)ccc(F)c1Cl` (stereo not drawn) [Example 109, 2-[3-(4-{6-amino-5-[1-(2,6-dichloro-3-fluorophenyl)ethoxy]pyridin-3-yl}1H-pyrazol-1-yl)azetidin-1-yl]acetamide] the value was 21 nM; for `CC(Oc1cc(-c2cnn(C3CCN(C(=O)OCCO)CC3)c2)cnc1N)c1c(Cl)ccc(F)c1Cl` (stereo not drawn) [Example 95, 2-hydroxyethyl 4-(4-{6-amino-5-[1-(2,6-dichloro-3-fluorophenyl)ethoxy]pyridin-3-yl}-1H-pyrazol-1-yl)piperidine-1-carboxylate], 10 nM. On the same count and under the same terms, for `C[C@@H](Oc1cc(-c2cnn(C3CCN(C)CC3)c2)cnc1N)c1c(Cl)ccc(F)c1Cl` [Example 46, 3-[(R)-1-(2,6-Dichloro-3-fluoro-phenyl)-ethoxy]-5-[1-(1-methyl-piperidin-4-yl)-1H-pyrazol-4-yl]-pyridin-2-ylamine] the value was 10 nM; for `CC(=O)N1CC(Cn2cc(-c3cnc(N)c(OC(C)c4c(Cl)ccc(F)c4Cl)c3)cn2)C1` (stereo not drawn) [Example 106, 5-{1-[(1-acetylazetidin-3-yl)methyl]-1H-pyrazol-4-yl}-3-[1-(2,6-dichloro-3-fluorophenyl)ethoxy]pyridin-2-amine], 29 nM; for `CC(Oc1cc(-c2cnn(Cc3nn[nH]n3)c2)cnc1N)c1c(Cl)ccc(F)c1Cl` (stereo not drawn) [Example 100, 3-[1-(2,6-dichloro-3-fluorophenyl)ethoxy]-5-[1-(2H-tetrazol-5-ylmethyl)-1H-pyrazol-4-yl]pyridin-2-amine], 40 nM. On the same count and under the same terms, for `C[C@@H](Oc1nc(-c2cnn(C3CCN(C(=O)CN(C)C)CC3)c2)cnc1N)c1c(Cl)ccc(F)c1Cl` [Example 70, 1-[4-(4-{5-Amino-6-[(R)-1-(2,6-dichloro-3-fluoro-phenyl)-ethoxy]-pyrazin-2-yl}-pyrazol-1-yl)-piperidin-1-yl]-2-dimethylamino-ethanone] the value was 15 nM; for `CC(Oc1cc(-c2cnn(C3CN(C(=O)CN(C)C)C3)c2)cnc1N)c1c(Cl)ccc(F)c1Cl` (stereo not drawn) [Example 7, 3-[1-(2,6-dichloro-3-fluorophenyl)ethoxy]-5-(1-{1-[(dimethylamino)acetyl]azetidin-3-yl}-1H-pyrazol-4-yl)pyridin-2-amine], 22 nM; for `CC(Oc1cc(-c2cnn(S(C)(=O)=O)c2)cnc1N)c1c(Cl)ccc(F)c1Cl` (stereo not drawn) [Example 71, 3-[1-(2,6-Dichloro-3-fluoro-phenyl)-ethoxy]-5-(1-methanesulfonyl-1H-pyrazol-4-yl)-pyridin-2-ylamine], 170 nM.

For `CC(Oc1cc(-c2cnn(C3CCN(CC4CC4)CC3)c2)cnc1N)c1c(Cl)ccc(F)c1Cl` (stereo not drawn) [Example 45, 5-[1-(1-Cyclopropylmethyl-piperidin-4-yl)-1H-pyrazol-4-yl]-3-[1-(2,6-dichloro-3-fluoro-phenyl)-ethoxy]-pyridin-2-ylamine], the inhibition constant (Ki) turned out to be 10 nM.

Consider `CC(Oc1cc(-c2cnn(C3CCN(C(=O)CN(C)C)CC3)c2)cnc1N)c1c(Cl)ccc(F)c1Cl` (stereo not drawn) [Example 44, 1-[4-(4-{6-Amino-5-[1-(2,6-dichloro-3-fluoro-phenyl)-ethoxy]-pyridin-3-yl}-pyrazol-1-yl)-piperidin-1-yl]-2-dimethylamino-ethanone], for which the Ki amounted to 10 nM.

`CC(Oc1cc(-c2cnn(CC3CN(CC#N)C3)c2)cnc1N)c1c(Cl)ccc(F)c1Cl` (stereo not drawn) [Example 111, {3-[(4-{6-amino-5-[1-(2,6-dichloro-3-fluorophenyl)ethoxy]pyridin-3-yl}-1H-pyrazol-1-yl)methyl]azetidin-1-yl}acetonitrile]: the Ki was 37 nM.

Regarding `CC(Oc1cc(-c2cnn([C@H](C)C(=O)NCCCN(C)C)c2)cnc1N)c1c(Cl)ccc(F)c1Cl` (stereo in doubt) [Example 74, 2-(4-{6-Amino-5-[1-(2,6-dichloro-3-fluoro-phenyl)-ethoxy]-pyridin-3-yl}-pyrazol-1-yl)-N-(3-dimethylamino-propyl)-propionamide], the Ki amounted to 40 nM. Turning to `CC(Oc1cc(-c2cnn(C3CCN(CC#N)CC3)c2)cnc1N)c1c(Cl)ccc(F)c1Cl` (stereo not drawn) [Example 42, [4-(4-{6-Amino-5-[1-(2,6-dichloro-3-fluoro-phenyl)-ethoxy]-pyridin-3-yl}-pyrazol-1-yl)-piperidin-1-yl]-acetonitrile], the Ki amounted to 20 nM. Still for that read-out and setting: to `CC(Oc1cc(-c2cnn(C(C)(C)C(=O)NCCCN(C)C)c2)cnc1N)c1c(Cl)ccc(F)c1Cl` (stereo not drawn) [Example 16, 2-(4-{6-Amino-5-[1-(2,6-dichloro-3-fluoro-phenyl)-ethoxy]-pyridin-3-yl}-pyrazol-1-yl)-N-(3-dimethylamino-propyl)-isobutyramide] belongs 60 nM. Still for that read-out and setting: to `C[C@@H](Oc1nc(-c2cn[nH]c2)cnc1N)c1c(Cl)ccc(F)c1Cl` [Example 67, 3-[(R)-1-(2,6-Dichloro-3-fluoro-phenyl)-ethoxy]-5-(1H-pyrazol-4-yl)-pyrazin-2-ylamine] belongs 65 nM; to `CC(=O)N1CCC(n2cc(-c3cnc(N)c(OC(C)c4c(Cl)ccc(F)c4Cl)c3)cn2)CC1` (stereo not drawn) [Example 41, 1-[4-(4-{6-Amino-5-[1-(2,6-dichloro-3-fluoro-phenyl)-ethoxy]-pyridin-3-yl}-pyrazol 1-yl)-piperidin-1-yl]-ethanone], 10 nM. Take `CC(Oc1cc(-c2cnn(C3CCC3)c2)cnc1N)c1c(Cl)ccc(F)c1Cl` (stereo not drawn) [Example 49, 5-(1-Cyclobutyl-1H-pyrazol-4-yl)-3-[1-(2,6-dichloro-3-fluoro-phenyl)-ethoxy]-pyridin-2-ylamine]: the Ki was found to be 20 nM.

In the case of `CC(Oc1cc(-c2cnn(C(C)(C)C(=O)O)c2)cnc1N)c1c(Cl)ccc(F)c1Cl` (stereo not drawn) [Example 12, 2-(4-{6-Amino-5-[1-(2,6-dichloro-3-fluoro-phenyl)-ethoxy]-pyridin-3-yl}-pyrazol-1-yl)-2-methyl-propionic acid], the Ki came out at 180 nM. Still for that read-out and setting: for `CC(Oc1cc(-c2cnn(C3CCCS(=O)(=O)C3)c2)cnc1N)c1c(Cl)ccc(F)c1Cl` (stereo not drawn) [Example 117, 3-[1-(2,6-dichloro-3-fluorophenyl)ethoxy]-5-[1-(1,1-dioxidotetrahydro-2H-thiopyran-3-yl)-1H-pyrazol-4-yl]pyridin-2-amine] the value was 14 nM.
